What was measured:
Type in all cases: cell-based
Enterobacter cloacae = assay: MIC against Gram-negative bacteria: Enterobacter cloacae; settings: for MIC against E. cloacae / MIC (μg/mL) E. cloacae: 5×10^5 CFU/mL
How it was run: (§1)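 Inocula prepared by growing LB cultures at 37° C to 0.5 McFarland, centrifuging at 4000×g, and resuspending in fresh medium. Final density 5×10^5 CFU/mL per well with two-fold dilutions of purified EGF domain protein; shaking incubation at 37° C.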

Proteus vulgaris = assay: MIC against Gram-negative bacteria: Proteus vulgaris; settings: for MIC against P. vulgaris / MIC (μg/mL) P. vulgaris: 5×10^5 CFU/mL
How it was run: as §1

E. coli DH5α = assay: Antibacterial activity: MIC and growth curve against E. coli DH5α in 96-well plate; settings: minimal inhibitory concentration against E. coli DH5α; 96-well plate, 5×10^5 CFU/mL, 37° C., judged after 8 h
How it was run: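 Log-phase bacteria (OD600 ~0.5) resuspended in LB at 5×10^5 CFU/mL, exposed to recombinant protein at 50, 25, 12.5 μg/mL final in triplicate, 37 °C shaking at 175 rpm. OD600 read every 30 min; MIC is lowest concentration showing no growth.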

Serratia marcescens = assay: MIC against Gram-negative bacteria: Serratia marcescens; settings: for MIC against S. marcescens / MIC (μg/mL) S. marcescens: 5×10^5 CFU/mL
How it was run: as §1

Citrobacter diversus = assay: MIC against Gram-negative bacteria: Citrobacter diversus; settings: for MIC against C. diversus / MIC (μg/mL) C. diversus: 5×10^5 CFU/mL
How it was run: as §1

E. coli BL21 = assay: MIC against Gram-negative bacteria: E. coli BL21; settings: for MIC against E. coli BL21 / MIC (μg/mL) E. coli BL21: 5×10^5 CFU/mL
How it was run: as §1

Aeromonas hydrophila = assay: MIC against Gram-negative bacteria: Aeromonas hydrophila; settings: for MIC against A. hydrophila / MIC (μg/mL) A. hydrophila: 5×10^5 CFU/mL
How it was run: as §1

Proteus mirabilis = assay: MIC against Gram-negative bacteria: Proteus mirabilis; settings: for MIC against P. mirabilis / MIC (μg/mL) P. mirabilis: 5×10^5 CFU/mL
How it was run: as §1

Moraxella catarrhalis = assay: MIC against Gram-negative bacteria: Moraxella catarrhalis; settings: for MIC against M. catarrhalis / MIC (μg/mL) M. catarrhalis: 5×10^5 CFU/mL
How it was run: as §1

Pseudomonas aeruginosa = assay: MIC against Gram-negative bacteria: Pseudomonas aeruginosa; settings: for MIC against P. aeruginosa / MIC (μg/mL) P. aeruginosa: 5×10^5 CFU/mL
How it was run: as §1

Klebsiella pneumonia = assay: MIC against Gram-negative bacteria: Klebsiella pneumonia; settings: for MIC against K. pneumonia / MIC (μg/mL) K. pneumonia: 5×10^5 CFU/mL
How it was run: as §1

[1] = E. cloacae, 10 h cultivation at 37° C.
[2] = P. vulgaris, 10 h cultivation at 37° C.
[3] = S. marcescens, 10 h cultivation at 37° C.
[4] = C. diversus, 10 h cultivation at 37° C.
[5] = E. coli BL21, 10 h cultivation at 37° C.
[6] = A. hydrophila, 10 h cultivation at 37° C.
[7] = P. mirabilis, 10 h cultivation at 37° C.
[8] = M. catarrhalis, 10 h cultivation at 37° C.
[9] = P. aeruginosa, 10 h cultivation at 37° C.
[10] = K. pneumonia, 10 h cultivation at 37° C.
[11] = Enterobacter cloacae, 10 h cultivation at 37° C.
[12] = Proteus vulgaris, 10 h cultivation at 37° C.
[13] = Serratia marcescens, 10 h cultivation at 37° C.
[14] = Citrobacter diversus, 10 h cultivation at 37° C.
[15] = Aeromonas hydrophila, 10 h cultivation at 37° C.
[16] = Proteus mirabilis, 10 h cultivation at 37° C.
[17] = Moraxella catarrhalis, 10 h cultivation at 37° C.
[18] = Pseudomonas aeruginosa, 10 h cultivation at 37° C.
[19] = Klebsiella pneumonia, 10 h cultivation at 37° C.

PRT901 (DINECVLSPCRHGASCQNTHGGYRCHCQAGYSGRNCE; listed as Homo sapiens)
MIC (Enterobacter cloacae; [1]): 25 µg/mL | MIC (Proteus vulgaris; [2]): 12.5 µg/mL | MIC (E. coli DH5α): 25 µg/mL | MIC (Serratia marcescens; [3]): 25 µg/mL | MIC (Citrobacter diversus; [4]): 25 µg/mL | MIC (E. coli BL21; [5]): 25 µg/mL | MIC (Aeromonas hydrophila; [6]): 12.5 µg/mL | MIC (Proteus mirabilis; [7]): 25 µg/mL | MIC (Moraxella catarrhalis; [8]): 50 µg/mL | MIC (Pseudomonas aeruginosa; [9]): 12.5 µg/mL | MIC (Klebsiella pneumonia; [10]): 50 µg/mL

PRT1473 (SFLNCSLDNGGCTHYCLEEVGWRRCSCAPGYKLGDDLLQCH; listed as Homo sapiens)
MIC against E. cloacae (Enterobacter cloacae; [11]): 12.5 µg/mL | MIC against P. vulgaris (Proteus vulgaris; [12]): 25 µg/mL | MIC (E. coli DH5α): 12.5 µg/mL | MIC against S. marcescens (Serratia marcescens; [13]): 12.5 µg/mL | MIC against C. diversus (Citrobacter diversus; [14]): 12.5 µg/mL | MIC against E. coli BL21 (E. coli BL21; [5]): 25 µg/mL | MIC against A. hydrophila (Aeromonas hydrophila; [15]): 50 µg/mL | MIC against P. mirabilis (Proteus mirabilis; [16]): 50 µg/mL | MIC against M. catarrhalis (Moraxella catarrhalis; [17]): 25 µg/mL | MIC against P. aeruginosa (Pseudomonas aeruginosa; [18]): 25 µg/mL | MIC against K. pneumonia (Klebsiella pneumonia; [19]): 50 µg/mL

PRT108 (VKDHCSKHSPCQKGGTCVNMPSGPHCLCPQHLTGNHCQ; listed as Homo sapiens)
MIC (μg/mL) E. cloacae (Enterobacter cloacae; Enterobacter cloacae, 96-well plate, 37° C., 10 h): 25 µg/mL | MIC (μg/mL) P. vulgaris (Proteus vulgaris; Proteus vulgaris, 96-well plate, 37° C., 10 h): 12.5 µg/mL | MIC (E. coli DH5α): 50 µg/mL | MIC (μg/mL) S. marcescens (Serratia marcescens; Serratia marcescens, 96-well plate, 37° C., 10 h): 12.5 µg/mL | MIC (μg/mL) C. diversus (Citrobacter diversus; Citrobacter diversus, 96-well plate, 37° C., 10 h): 25 µg/mL | MIC (μg/mL) E. coli BL21 (E. coli BL21; E. coli BL21, 96-well plate, 37° C., 10 h): 12.5 µg/mL | MIC (μg/mL) A. hydrophila (Aeromonas hydrophila; Aeromonas hydrophila, 96-well plate, 37° C., 10 h): 12.5 µg/mL | MIC (μg/mL) P. mirabilis (Proteus mirabilis; Proteus mirabilis, 96-well plate, 37° C., 10 h): 12.5 µg/mL | MIC (μg/mL) M. catarrhalis (Moraxella catarrhalis; Moraxella catarrhalis, 96-well plate, 37° C., 10 h): 50 µg/mL | MIC (μg/mL) P. aeruginosa (Pseudomonas aeruginosa; Pseudomonas aeruginosa, 96-well plate, 37° C., 10 h): 25 µg/mL | MIC (μg/mL) K. pneumonia (Klebsiella pneumonia; Klebsiella pneumonia, 96-well plate, 37° C., 10 h): 50 µg/mL

PRT1381 (GMRSCPRGCSQRGRCENGRCVCNPGYTGEDC; listed as Homo sapiens)
MIC against E. cloacae (Enterobacter cloacae; [11]): 12.5 µg/mL | MIC against P. vulgaris (Proteus vulgaris; [12]): 50 µg/mL | MIC (E. coli DH5α): 12.5 µg/mL | MIC against S. marcescens (Serratia marcescens; [13]): 25 µg/mL | MIC against C. diversus (Citrobacter diversus; [14]): 25 µg/mL | MIC against E. coli BL21 (E. coli BL21; [5]): 25 µg/mL | MIC against A. hydrophila (Aeromonas hydrophila; [15]): 50 µg/mL | MIC against P. mirabilis (Proteus mirabilis; [16]): 25 µg/mL | MIC against M. catarrhalis (Moraxella catarrhalis; [17]): 12.5 µg/mL | MIC against P. aeruginosa (Pseudomonas aeruginosa; [18]): 50 µg/mL | MIC against K. pneumonia (Klebsiella pneumonia; [19]): 25 µg/mL

PRT464 (DLDECRVRNLCQHACRNTEGSYQCLCPAGYRLLPSGKNCQ; listed as Homo sapiens)
MIC against E. cloacae (Enterobacter cloacae; 96-well plate, 37° C., 10 h): 12.5 µg/mL | MIC against P. vulgaris (Proteus vulgaris; 96-well plate, 37° C., 10 h): 50 µg/mL | MIC (E. coli DH5α): 12.5 µg/mL | MIC against S. marcescens (Serratia marcescens; 96-well plate, 37° C., 10 h): 12.5 µg/mL | MIC against C. diversus (Citrobacter diversus; 96-well plate, 37° C., 10 h): 50 µg/mL | MIC against E. coli BL21 (E. coli BL21; 96-well plate, 37° C., 10 h): 50 µg/mL | MIC against A. hydrophila (Aeromonas hydrophila; 96-well plate, 37° C., 10 h): 25 µg/mL | MIC against P. mirabilis (Proteus mirabilis; 96-well plate, 37° C., 10 h): 12.5 µg/mL | MIC against M. catarrhalis (Moraxella catarrhalis; 96-well plate, 37° C., 10 h): 25 µg/mL | MIC against P. aeruginosa (Pseudomonas aeruginosa; 96-well plate, 37° C., 10 h): 12.5 µg/mL | MIC against K. pneumonia (Klebsiella pneumonia; 96-well plate, 37° C., 10 h): 50 µg/mL

PRT835 (DVDECASSRGGCEHHCTNLAGSFQCSCEAGYRLHEDRRGCS; listed as Homo sapiens)
MIC (μg/mL) E. cloacae (Enterobacter cloacae; [1]): 50 µg/mL | MIC (μg/mL) P. vulgaris (Proteus vulgaris; [2]): 12.5 µg/mL | MIC (E. coli DH5α): 25 µg/mL | MIC (μg/mL) S. marcescens (Serratia marcescens; [3]): 25 µg/mL | MIC (μg/mL) C. diversus (Citrobacter diversus; [4]): 12.5 µg/mL | MIC (μg/mL) E. coli BL21 (E. coli BL21; [5]): 50 µg/mL | MIC (μg/mL) A. hydrophila (Aeromonas hydrophila; [6]): 25 µg/mL | MIC (μg/mL) P. mirabilis (Proteus mirabilis; [7]): 50 µg/mL | MIC (μg/mL) M. catarrhalis (Moraxella catarrhalis; [8]): 25 µg/mL | MIC (μg/mL) P. aeruginosa (Pseudomonas aeruginosa; [9]): 25 µg/mL | MIC (μg/mL) K. pneumonia (Klebsiella pneumonia; [10]): 12.5 µg/mL

PRT559 (CHCSAEGSLHAACDPRSGQCSCRPRVTGLRCDTCVPGAYNFPYCEA; listed as Homo sapiens)
MIC against E. cloacae (Enterobacter cloacae; 96-well plate, 37° C., 10 h): 25 µg/mL | MIC against P. vulgaris (Proteus vulgaris; 96-well plate, 37° C., 10 h): 50 µg/mL | MIC (E. coli DH5α): 25 µg/mL | MIC against S. marcescens (Serratia marcescens; 96-well plate, 37° C., 10 h): 25 µg/mL | MIC against C. diversus (Citrobacter diversus; 96-well plate, 37° C., 10 h): 25 µg/mL | MIC against E. coli BL21 (E. coli BL21; 96-well plate, 37° C., 10 h): 50 µg/mL | MIC against A. hydrophila (Aeromonas hydrophila; 96-well plate, 37° C., 10 h): 50 µg/mL | MIC against P. mirabilis (Proteus mirabilis; 96-well plate, 37° C., 10 h): 25 µg/mL | MIC against M. catarrhalis (Moraxella catarrhalis; 96-well plate, 37° C., 10 h): 12.5 µg/mL | MIC against P. aeruginosa (Pseudomonas aeruginosa; 96-well plate, 37° C., 10 h): 25 µg/mL | MIC against K. pneumonia (Klebsiella pneumonia; 96-well plate, 37° C., 10 h): 12.5 µg/mL
